Numbering of substitutions follows the chain as printed. In names and notes the source's numbering stands. Several values for one entry are separate records, joined by “and”; a condition that tells them apart may be missing. Identical values can stand only once. Like-named read-outs stand apart in the source and are kept apart here. Values belong to the molecule of their own block, whether it stands above or below them.
How the values were obtained:
[1] = molecular target: T1, A467G PEPCK (rat cPEPCK mutant) (Rattus norvegicus, UniProt P07379, A467G); assay: Assay B: PEP+GDP+CO2→OAA+GTP, coupled MDH assay; format: biochemical
T1 sequence (P07379 1-622 A467G): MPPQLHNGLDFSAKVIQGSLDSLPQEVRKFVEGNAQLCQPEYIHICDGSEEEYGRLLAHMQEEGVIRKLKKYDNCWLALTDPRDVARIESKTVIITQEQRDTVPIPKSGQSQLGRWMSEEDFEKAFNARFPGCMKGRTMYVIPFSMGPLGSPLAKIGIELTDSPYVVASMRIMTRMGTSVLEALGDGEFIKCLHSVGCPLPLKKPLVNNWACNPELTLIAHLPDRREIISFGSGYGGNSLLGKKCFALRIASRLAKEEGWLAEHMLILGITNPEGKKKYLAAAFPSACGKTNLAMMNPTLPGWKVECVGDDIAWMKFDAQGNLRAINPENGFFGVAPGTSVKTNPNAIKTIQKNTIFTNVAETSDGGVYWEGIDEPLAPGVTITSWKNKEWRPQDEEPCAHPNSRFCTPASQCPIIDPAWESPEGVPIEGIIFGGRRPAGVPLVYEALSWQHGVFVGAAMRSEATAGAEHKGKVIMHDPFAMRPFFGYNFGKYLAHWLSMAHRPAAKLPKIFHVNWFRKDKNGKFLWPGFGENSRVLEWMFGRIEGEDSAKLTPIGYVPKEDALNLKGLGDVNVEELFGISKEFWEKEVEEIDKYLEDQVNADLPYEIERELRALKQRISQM

WT rat cPEPCK [2] = molecular target: T2, WT rat cPEPCK (Rattus norvegicus, UniProt P07379); assay: Assay B: PEP+GDP+CO2→OAA+GTP, coupled MDH assay; format: biochemical; conditions: Wild-type, 25 °C
T2 sequence (P07379 1-622): T1 sequence (P07379 1-622 A467G) with G467A

[3] = molecular target: T1, A467G PEPCK (rat cPEPCK mutant); assay: Assay A: OAA+GTP→PEP+CO2+GDP, coupled PK/LDH assay; format: biochemical
WT rat cPEPCK [4] = molecular target: T2, WT rat cPEPCK; assay: Assay C: OAA+GTP→pyruvate+GTP+CO2; format: biochemical; conditions: WT PEPCK; GTPγS in place of GTP
WT rat cPEPCK [5] = molecular target: T2, WT rat cPEPCK; assay: Assay A: OAA+GTP→PEP+CO2+GDP, coupled PK/LDH assay; format: biochemical
[6] = molecular target: T1, A467G PEPCK (rat cPEPCK mutant); assay: Assay D: OAA+GDP→pyruvate+GDP+CO2; format: biochemical
[7] = molecular target: T1, A467G PEPCK (rat cPEPCK mutant); assay: Inhibitor assays with substrate analogues; conditions: for change in affinity, A467G vs WT: from Ki values of the inhibition experiments
WT rat cPEPCK [8] = molecular target: T2, WT rat cPEPCK; assay: Inhibitor assays with substrate analogues
PEPCK = conditions: pyruvate only weakly associates with PEPCK; cited from earlier work
[9] = substrate: O=C(O)CC(=O)C(=O)O; assay: purified protein, by the assay type; format: biochemical, rat; conditions: OAA + GDP → Pyruvate + GDP + CO2, 25 °C
[10] = WT PEPCK, slow substrate GTPγS in place of GTP, OAA→PEP

Km ([1]; A467G, PEP + CO2 + GDP → OAA + GTP, 25 °C, labelled substrate varied): 814 ± 98 µM
Km (WT rat cPEPCK [2]; labelled substrate varied): 1190 ± 109 µM
Molecule: O=C=O [CO2]

kcat/KM of A467G as % of WT ([1]; assay B, PEP→OAA): 3%
Molecule: Nc1nc2c(ncn2[C@@H]2O[C@H](COP(=O)(O)OP(=O)(O)O)[C@@H](O)[C@H]2O)c(=O)[nH]1 [GDP, guanosine-5′-diphosphate]

change in KM, A467G vs WT (factor) ([3]; assay A, OAA→PEP): 1.4
decrease in kcat/KM, A467G vs WT ([3]; assay A, OAA→PEP): less than a factor of three
Molecule: Nc1nc2c(ncn2[C@@H]2O[C@H](COP(=O)(O)OP(=O)(O)OP(=O)(O)O)[C@@H](O)[C@H]2O)c(=O)[nH]1 [GTP, guanosine-5′-triphosphate]

pyruvate formation during the OAA→PEP reaction (WT rat cPEPCK [4]): did not observe any pyrvuate formation
Km (WT rat cPEPCK [5]; [10]): 39 µM
kcat (WT rat cPEPCK [5]; [10]): 13 s⁻¹
Molecule: Nc1nc2c(ncn2[C@@H]2O[C@H](COP(=O)(O)OP(=O)(O)OP(O)(O)=S)[C@@H](O)[C@H]2O)c(=O)[nH]1 [GTPγS, guanosine 5′-O-[gamma-thio]triphosphate]

kcat/KM of A467G as % of WT ([3]; assay A, OAA→PEP): 1.9% and 2%
KM of A467G relative to WT ([3]; assay A, OAA→PEP, higher in A467G): 14 fold
efficiency of WT relative to A467G at catalyzing decarboxylation of OAA [6]: 20 fold
Molecule: O=C(O)CC(=O)C(=O)O [OAA, oxaloacetic acid]

KM of A467G as % of WT ([1]; assay B, PEP→OAA): 21% and ~ 21%
reduction in catalytic efficiency of A467G relative to WT ([1]; assay B, PEP→OAA): factor of four
Molecule: C=C(OP(=O)(O)O)C(=O)O [PEP, phosphoenolpyruvate]

change in affinity, A467G vs WT [7]: increases by less than a factor of two
Ki (WT rat cPEPCK [8]; Wild-type, assay B, against PEP, 25 °C): 2530 ± 13 µM
Molecule: O=C(O)COP(=O)(O)O [PGA, 2-phosphoglycolate]

change in affinity, A467G vs WT [7]: approximately a factor of eight
loss in binding energy / decreased stabilization in A467G vs WT ([7]; from oxalate Ki, extrapolated to the enolate intermediate): ~ 5.3 kJ mol^−1
Ki (WT rat cPEPCK [8]): 106 ± 6 µM
Molecule: O=C(O)C(=O)O [oxalate]

Molecule: CC(=O)C(=O)O [pyruvate]
Ki (PEPCK): 9000 µM

change in affinity, A467G vs WT [7]: factor of approximately two
Ki (WT rat cPEPCK [8]; Wild-type, assay A, against OAA, competitive (slope) Ki, 25 °C): 26 ± 1 µM
Molecule: O=C(O)C(=O)CS(=O)(=O)O [βSP, 3-sulfopyruvate]

B1: WT rat cPEPCK (Rattus norvegicus) (protein)
chain: T1 sequence (P07379 1-622 A467G) with G467A
kcat (WT rat cPEPCK [5]; Wild-type, OAA + GTP → PEP + GDP + CO2, 25 °C): 54 ± 0.2 s⁻¹
kcat (WT rat cPEPCK [2]): 19 ± 0.8 s⁻¹
Km ([9]; other: Wild-type): 117 ± 11 µM
kcat ([9]; other: Wild-type): 2.3 ± 0.1 s⁻¹
kcat/Km ([9]; other: Wild-type): 20000 M⁻¹ s⁻¹

B2: A467G PEPCK (rat cPEPCK mutant) (Rattus norvegicus; A467G) (protein)
chain: T1 sequence (P07379 1-622 A467G)
kcat ([1]; A467G, PEP + CO2 + GDP → OAA + GTP, 25 °C): 1 ± 0.1 s⁻¹
kcat ([3]; A467G, OAA + GTP → PEP + GDP + CO2, 25 °C): 14 ± 0.1 s⁻¹
Km ([9]; other: A467G): 970 ± 118 µM
kcat ([9]; other: A467G): 1.3 ± 0.1 s⁻¹
kcat/Km ([9]; other: A467G): 1000 M⁻¹ s⁻¹

From publication PMC2893389 (Biochemistry, 2010)
